Where a name gives a salt, the structure may show the parent alone.
Tests used:
3R tau (tau^3R) = test: In vitro seeded aggregation assay of 3R tau (ThT fluorescence); assay type: biochemical; details: mole ratios 1:3 and 1:10
Description: (§1) Seeded aggregation assays were performed as described above but with 1.0% of the well volume occupied by the seeding mixture sonicated for 1 minute. The assays were performed in the presence and absence of compounds, and working concentrations ranged from 0-250 μM compound. Analyses of the fluorescence curves were performed using Graphpad PRISM version 8. Fluorescence data were fit to a sigmoid function. The number of hours corresponding to half-maximal ThT FluorescenceTM as well as the span of fluorescence intensity (Span) were determined for each sigmoid curve. Statistically significant differences were determined by one-way ANOVA analysis with Dunnett's multiple comparison test or unpaired t-test. The described seeded aggregation protocol was likewise applied to 3R Tau and the […]/[…] mutant of 2N4R Tau.

2N4R tau^C291S,C322S = 2N4R tau^C291S,C322S (Homo sapiens, UniProt P10636, C608S/C639S); test: In vitro seeded aggregation assay of cysteine-free tau mutant (ThT fluorescence); assay type: biochemical; details: mole ratios 1:3 and 1:10
Description: as §1

Full-length 2N4R tau = target: T1, Full-length 2N4R tau (Homo sapiens, UniProt P10636); test: MS/MS analysis of compound adduct in tau; assay type: binding; details: 1:5 mole ratio tau:compound, overnight at 37° C.
T1 construct: Full-length 2N4R tau was incubated with Osimertinib mesylate
Description: Compounds (330 μM) were incubated with 2N4R Tau (65 μM) in buffer (25 mM HEPES, 10 mM KCl, 5 mM MgCl2, pH 7.2) for 16 h at 37° C. then stored at 4° C. until in-gel digestion.
In-gel digestion using trypsin (Sigma Aldrich) followed by extraction of peptides for mass spectrometry were performed as described previously (Reference: Shevchenko, A., Tomas, H., Havlis, J., Olsen, J. V., and Mann, M. (2006). In-gel digestion for mass spectrometric characterization of proteins and proteomes. Nature protocols 1, 2856-2860). Extracted peptides were resuspended in 2% acetonitrile and 0.05% TFA and analyzed using a Orbitrap Exploris 480 Mass Spectrometer (Thermo Fisher). The mass spectrometer used an emitter voltage at […] and ion transfer tube temperature at 300° C. Full scans were recorded in the range 350 to 1600 m/z with a mass resolution of 15000. Peptides were fragmented in the collision cell with a 28% energy setting. Tandem mass spectra were acquired using Scan Range Mode “Define First Mass” and isolation window of 1.6 m/z with a mass resolution of 15000.

Solubility in water = assay type: physicochemical; details: without cosolvents or counterions

T1 sequence (P10636 1-441 isoform P10636-8): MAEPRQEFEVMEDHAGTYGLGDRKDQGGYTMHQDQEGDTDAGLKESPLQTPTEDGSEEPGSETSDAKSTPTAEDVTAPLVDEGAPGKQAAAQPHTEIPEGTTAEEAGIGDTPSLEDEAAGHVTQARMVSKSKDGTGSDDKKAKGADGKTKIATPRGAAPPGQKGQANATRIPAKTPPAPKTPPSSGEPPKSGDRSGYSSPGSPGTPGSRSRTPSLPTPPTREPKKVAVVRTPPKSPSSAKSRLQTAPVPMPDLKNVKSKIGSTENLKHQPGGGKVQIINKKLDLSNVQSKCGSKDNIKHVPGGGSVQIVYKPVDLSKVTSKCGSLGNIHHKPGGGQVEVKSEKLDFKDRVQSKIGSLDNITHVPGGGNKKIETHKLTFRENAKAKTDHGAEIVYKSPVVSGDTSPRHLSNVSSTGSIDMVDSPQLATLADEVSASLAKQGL
2N4R tau^C291S,C322S, sequence (P10636 1-441 isoform P10636-8 C291S/C322S): as the sequence (P10636 1-441 isoform P10636-8) above, with C291S, C322S counted along it

| normalized Span of ThT fluorescence (2N4R tau^C291S,C322S) | normalized Tm (midpoint of aggregation curve) (2N4R tau^C291S,C322S) | tau peptide spectrum matches showing compound-modified cysteine sites (Full-length 2N4R tau) | solubility in water (Solubility in water) | SMILES | normalized Span of ThT fluorescence (3R tau (tau^3R)) | normalized Tm (midpoint of aggregation curve) (3R tau (tau^3R)) | covalent modification of C291 and C322 (peptide mass spectra, LC-MS/MS) (Full-length 2N4R tau; tryptic digestion) |
| --- | --- | --- | --- | --- | --- | --- | --- |
| not observed | do not show a clear dose-dependence | about 350 |  | C=CC(=O)Nc1cc(Nc2nccc(-c3cn(C)c4ccccc34)n2)c(OC)cc1N(C)CCN(C)C [Osimertinib mesylate, N-[2-(2-Dimethylaminoethylmethylamino)-4-methoxy-5-[[4-(1-methylindol-3-yl)pyrimidin-2-yl]amino]phenyl]prop-2-enamide Mesylate Salt] | statistically lower normalized Span values | do not show a clear dose-dependence | confirm covalent modification of cysteines in tau |
|  |  |  | poor solubility in water | C=CC(=O)Nc1cc(Nc2nccc(-c3cn(C)c4ccccc34)n2)c(OC)cc1N(C)CCN(C)C [Osimertinib, N-[2-(2-Dimethylaminoethylmethylamino)-4-methoxy-5-[[4-(1-methylindol-3-yl)pyrimidin-2-yl]amino]phenyl]prop-2-enamide] |  |  |  |

Source: patent US20250275968A1, “INHIBITORS OF TAU PROTEINS” (DEUTSCHES ZENTRUM FÜR NEURODEGENERATIVE ERKRANKUNGEN E.V., priority 2022, published 2025)
